Values of other authors in patent US20210369646A1, “Composition for local tumescent anesthesia” (priority 2020, published 2021).
Where two headings read alike, the source gives them in different places.

Assays:
[1] = tested on: alpha 1 acid glycoprotein; settings: bound to alpha 1 acid glycoprotein almost entirely
[2] = tested on: plasmatic protein
[3] = biological target: plasminogen (Homo sapiens, UniProt P00747)
Chain of plasminogen (P00747 20-810 limits assumed): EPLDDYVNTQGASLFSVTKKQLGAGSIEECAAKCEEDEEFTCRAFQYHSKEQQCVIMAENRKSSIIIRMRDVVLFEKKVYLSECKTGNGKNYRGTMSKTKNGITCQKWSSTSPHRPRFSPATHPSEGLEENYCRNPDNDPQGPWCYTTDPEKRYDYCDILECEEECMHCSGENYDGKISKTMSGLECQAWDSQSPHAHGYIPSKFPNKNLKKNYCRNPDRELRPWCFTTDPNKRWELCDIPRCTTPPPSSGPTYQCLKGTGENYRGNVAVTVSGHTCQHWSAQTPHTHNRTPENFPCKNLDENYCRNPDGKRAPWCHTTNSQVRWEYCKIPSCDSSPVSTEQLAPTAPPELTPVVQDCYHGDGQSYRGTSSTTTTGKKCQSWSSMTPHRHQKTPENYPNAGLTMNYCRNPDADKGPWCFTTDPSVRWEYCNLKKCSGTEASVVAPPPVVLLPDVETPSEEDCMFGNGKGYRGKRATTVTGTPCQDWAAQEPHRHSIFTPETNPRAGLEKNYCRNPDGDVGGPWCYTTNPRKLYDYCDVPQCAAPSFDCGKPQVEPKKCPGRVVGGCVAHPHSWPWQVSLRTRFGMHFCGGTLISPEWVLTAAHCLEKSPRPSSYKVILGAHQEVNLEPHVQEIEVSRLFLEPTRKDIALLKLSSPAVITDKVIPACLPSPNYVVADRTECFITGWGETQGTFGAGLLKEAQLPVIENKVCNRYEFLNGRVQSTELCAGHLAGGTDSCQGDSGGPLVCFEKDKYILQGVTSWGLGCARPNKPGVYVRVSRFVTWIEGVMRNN

CCCN1CCCC[C@H]1C(=O)Nc1c(C)cccc1C [Ropivacaine]
excreted through the kidneys into the urine (in vivo): ~86% | transformed into 3-hydroxy-ropivacaine (aromatic hydroxylation) (liver, share of all anesthetic agent): 99% | free protein form [1]: 6%

NC[C@H]1CC[C@H](C(=O)O)CC1 [Tranexamic acid]
middle lifetime (after the administration): 3 h | excreted through the kidneys into the urine without a conjugated form (by the first 24 hours): 90% | plasmatic protein bound [2]: 3% | free protein form ([2]; in words): no free protein form | affinity to plasminogen [3]: high affinity

CNC[C@H](O)c1ccc(O)c(O)c1 [Epinephrine]
total doses excreted into the urine (after next 18 hours): 50% | total doses excreted into the urine (by the first 6 hours): 50% | middle lifetime (in vivo): 0.00556 h | principal metabolite: conjugated metanephrine (in vivo): 40% | principal metabolite: vanillylmandelic acid (in vivo): 40% | maximum concentration after a subcutaneous injection (time) (subcutaneous injection): 20 to 40 min
